Results on two substances are retold here after patent US5877026A, “Analgesic peptides from venom of Grammostola spatulata and use thereof” (priority 1998, dated 1999).

Where no end group is shown, it is not given here.

Holding throughout (format): in vivo, rat
In data set [1] the test system is opioid receptors. Kind of data set: Opioid receptor testing (opioid antagonist pretreatment). How it is done:
Animals were then tested in the tail flick test (Example 3) and von Frey tests (Example 5).

Data set [2] concerns Sprague Dawley rats. The note with it: i.th.; two treatment arms.
In data set [3] the test system is Sprague-Dawley rats. Description: Hot plate threshold. How it is done: This test measures the temperature at which point a rat voluntarily removes one of its hindlimbs from the heated surface and either shakes or lick the affected appendage. The temperature of the heated surface is pre-set to the experimentally deduced value of 38° C. and a maximum cutoff value of either 53° C. or 54° C. has been used. Data is expressed either as absolute temperature in degrees C. or as percentage maximal possible effect as described by the formula [formula] (54 is substituted for 53 in the above formula if it is the maximal value.)
(§1) With minimal restraint, peptide GsAF I was injected intrathecally (i.th.) into young (75-150 gram) male Sprague-Dawley rats (Charles Rivers Laboratories, Wilmington, Mass.) into the spinal subarachnoid space between lumbar spinous processes L4 and L5 using 10 microliter Hamilton syringes equipped with 3/8 inch by 28G needles. Dosing levels were based upon concentrations deduced from ultraviolet absorbance values at 280 nm using an extinction coefficient of 18710. Injection volume was 10 microliters. The injection vehicle was saline or 0.1 %bovine serum albumin(BSA)/saline. The rats were pretreated with GsAF I 30 minutes prior to exposure to heat.
as §1, with “GsAF II” for “GsAF I”, “or 0.1% bovine” for “or 0.1 %bovine”, “GsAF II 15” for “GsAF I 30”

Data set [4] has as its system Sprague Dawley rats. Kind of data set: Acute inflammatory pain, carrageenan paw withdrawal latency. Particulars: for Mean Latency Time In Seconds ± SEM, 30 minutes post treatment / Mean Latency Time In Seconds ± SEM, 60 minutes post treatment: 3 nmol intrathecal cannula; for Mean Latency Time In Seconds ± SEM, 30 minutes post treatment: given after 150 min post carrageenan; for Mean Latency Time In Seconds ± SEM, 60 minutes post treatment: predetermined cut-off value 20.8 sec. Here is the method: Tissue injury results in inflammation and hyperalgesia (i.e. increased magnitude or duration of pain response to supra threshold noxious stimuli) at both the site of injury and at adjacent tissue sites. To assess the anti-hyperalgesic activity of GsAF II in inflammatory pain conditions, paw withdrawal latencies were determined in adult 350-400 gram male Sprague Dawley rats following the unilateral injection of carrageenan, a seaweed extract, into the hindpaw in accordance with the method of Hargreaves et al, Pain, 32:77-88, 1988. Briefly, withdrawal latencies are measured by placing the rat on a glass plate and focusing radiant heat from the underside of the plate toward the hindpaw surface. Latencies values are recorded in seconds to withdrawal of the hindpaw from the surface of the plate. Basal measurements are made prior to injection of the carrageenan (4 mg/hindpaw), followed by a measurement at 150 min post carrageenan injection to obtain the level of hyperalgesic response. Subsequent to the second measurement, GsAF II or vehicle (i.e. 0:1% BSA/saline) is administered through an indwelling intrathecal cannula positioned within the lumbar enlargement of the spinal cord. Anti-hyperalgesic activity is determined by measuring paw withdrawal latencies at various time intervals following compound administration. Concurrent with the paw withdrawal latencies, physical measurements of paw volume and paw temperature are recorded to detect anti-inflammatory and anti-pyretic activities.
On the technique in general: In the carrageenan paw model, swelling and tenderness develop within hours.

Setting [5] is: 3 nmol group (n = 4), before compound administration.

Take “Tyr-Cys-Gln-Lys-Trp-Leu-Trp-Thr-Cys-Asp-Ser-Glu-Arg-Lys-Cys-Cys-Glu-Asp-Met-Val-Cys-Arg-Leu-Trp-Cys-Lys-Lys-Arg-Leu-NH2 (YCQKWLWTCDSERKCCEDMVCRLWCKKRL-NH2; cysteine pairing not given here) [GsAF I]”: the “effect of B-funaltrexamine pretreatment on analgesic activity” value in data set [1] (B-funaltrexamine 5 micrograms i.th. 18 hours prior, hot plate test or formalin test) is “failed to inhibit”. Besides, the “effect of intrathecal naloxone on analgesic response” value in data set [1] (naloxone 50 μg i.th. immediately prior, 180 pmoles i.th., measured 10 minutes later) was “failed to inhibit”. Also, the “effect of naloxone pretreatment on analgesic activity” value in data set [1] (naloxone 10mg/kg subcutaneous 5 minutes prior, 180 pmoles i.th., measured 10 minutes later, tail flick and von Frey tests) was “failed to inhibit”. In data set [2], the “dose response properties, morphine treatment versus saline arm (cross tolerance)” value was “not significantly different”. Moreover, the “MPE, hot plate threshold” value in data set [3] (18 picomoles (6.6 nanograms) i.th., one hour pretreatment) turned out to be 24 % MPE; in data set [3] (180 picomole (66 nanograms) i.th., one hour pretreatment), 91 % MPE; in data set [3] (180 picomoles (666 nanograms) i.th., 30 minute pretreatment), 70 % MPE. Further, the “activity in hot plate threshold” value in data set [3] (18 picomoles i.th., 30 minute pretreatment) is given as “loss of significant activity”. Also, the adverse motor effects result in data set [3] (180 and 18 picomoles i.th.) is given as “No adverse motor effects were evident”.
For the substance “YCQKWMWTCDEERKCCEGLVCRLWCKKKIEW (cysteine pairing not given here) [GsAF II]”, in data set [4] (setting [5]), the “Mean Latency Time In Seconds ± SEM, 150 minutes post carrageenan injection” value was 3.0 ± 0.81 s and the “Mean Latency Time In Seconds ± SEM, base latency prior to carrageenan injection” value was 8.3 ± 1.2 s. Besides, in data set [4], the “Mean Latency Time In Seconds ± SEM, 30 minutes post treatment” value came to 17.82 ± 3.78 s and the “Mean Latency Time In Seconds ± SEM, 60 minutes post treatment” value was 20.8 s. Besides, in data set [4] (listed as GsAFII), the “Mean Latency Time In Seconds ± SEM, 30 minutes post treatment” value was determined as 17.82 ± 3.78 s and the “Mean Latency Time In Seconds ± SEM, 60 minutes post treatment” value turned out to be 20.8 ± 0.00 s. In data set [4] (3 nmoles intrathecal), the “confounding motor deficits or overt negative side effects” value is given as “no indication”; the “hyperalgesic, thermal-induced response” value is “completely reversed”; the paw temperature result is recorded as “No significant reduction”; the paw volume entry is “No significant reduction”. Also, the “MPE, hot plate threshold” value in data set [3] (2.33 nanomole (9.27 micrograms) i.th., 15 minutes pretreatment, all animals) was found to be 100 % MPE. For the same substance, in data set [3] (2.33 nanomole and 583 picomoles i.th.), the motor coordination problems entry is on record as “No motor coordination problems were witnessed”. Moreover, the “average MPE, hot plate threshold” value in data set [3] (583 picomoles (2.32 micrograms) i.th., 15 minutes pretreatment) came to 59%.
